The source made the active and inactive calls. The rule behind the calls is not given here.

The values that follow come from ChEMBL document CHEMBL3600362, “Synthesis of CNS active thyrotropin-releasing hormone (TRH)-like peptides: Biological evaluation and effect on cognitive impairment induced by cerebral ischemia in mice” (Bioorg Med Chem, 2015).

Data set [1] deals with T1, Thyrotropin-releasing hormone receptor (Mus musculus, UniProt P21761).
T1 sequence (P21761 whole entry): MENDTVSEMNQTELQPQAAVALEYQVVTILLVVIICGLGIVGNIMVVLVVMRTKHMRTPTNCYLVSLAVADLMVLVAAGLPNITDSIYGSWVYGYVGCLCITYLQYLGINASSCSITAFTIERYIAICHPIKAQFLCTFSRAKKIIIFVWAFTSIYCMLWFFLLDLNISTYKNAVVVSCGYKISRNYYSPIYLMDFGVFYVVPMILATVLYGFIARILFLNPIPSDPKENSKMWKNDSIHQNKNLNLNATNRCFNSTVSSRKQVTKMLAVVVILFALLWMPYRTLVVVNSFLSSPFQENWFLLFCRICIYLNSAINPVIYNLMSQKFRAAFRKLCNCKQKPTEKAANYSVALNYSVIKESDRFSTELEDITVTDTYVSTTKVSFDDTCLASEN
Nature of the data set: Displacement of [3H]-1-MeHis-TRH from mouse TRH-R1 expressed in HEK293 cells incubated up to 4 hrs by scintillation counting method. It counts as cell-based. In general terms: Displacement assays read how much labelled ligand stays bound in the presence of the test substance.

For data set [2], the target named is T2, Thyrotropin-releasing hormone receptor 2 (Mus musculus, UniProt Q9ERT1).
T2 sequence (Q9ERT1 whole entry): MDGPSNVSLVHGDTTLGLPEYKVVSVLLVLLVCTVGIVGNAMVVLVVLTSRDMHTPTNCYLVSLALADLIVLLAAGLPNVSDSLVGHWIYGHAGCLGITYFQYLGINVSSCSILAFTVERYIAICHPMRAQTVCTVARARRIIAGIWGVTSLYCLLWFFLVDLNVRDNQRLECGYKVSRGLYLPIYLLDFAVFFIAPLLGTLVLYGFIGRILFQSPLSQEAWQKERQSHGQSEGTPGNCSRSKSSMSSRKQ
The data set is described as follows: Displacement of [3H]-1-MeHis-TRH from mouse TRH-R2 expressed in HEK293 cells incubated up to 4 hrs by scintillation counting method. It is filed as cell-based.

Data set [3] concerns the target T1, Thyrotropin-releasing hormone receptor. The data set is described as follows: Agonist activity at mouse TRH-R1 expressed in HEK293 cells assessed as induction of changes in intracellular Ca2+ level by FLIPR method. It counts as functional, cell-based.
In data set [4] the target is T2, Thyrotropin-releasing hormone receptor 2. Nature of the data set: Agonist activity at mouse TRH-R2 expressed in HEK293 cells assessed as induction of changes in intracellular Ca2+ level by FLIPR method. It is filed as functional, cell-based.
The subject of data set [5] is HEK293. Nature of the data set: Selectivity index, ratio of EC50 for agonist activity at mouse TRH-R1 expressed in HEK293 cells to EC50 for agonist activity at mouse TRH-R2 expressed in HEK293 cells. It counts as cell-based.
The subject of data set [6] is Mus musculus. The data set is described as follows: Reduction in pentobarbital-induced sleeping time in Swiss mouse at 10 umol/kg, iv. It is filed as functional.
Data set [7] concerns the target T3, Thyrotropin-releasing hormone-degrading ectoenzyme (Mus musculus, UniProt Q8K093).
T3 sequence (Q8K093 whole entry): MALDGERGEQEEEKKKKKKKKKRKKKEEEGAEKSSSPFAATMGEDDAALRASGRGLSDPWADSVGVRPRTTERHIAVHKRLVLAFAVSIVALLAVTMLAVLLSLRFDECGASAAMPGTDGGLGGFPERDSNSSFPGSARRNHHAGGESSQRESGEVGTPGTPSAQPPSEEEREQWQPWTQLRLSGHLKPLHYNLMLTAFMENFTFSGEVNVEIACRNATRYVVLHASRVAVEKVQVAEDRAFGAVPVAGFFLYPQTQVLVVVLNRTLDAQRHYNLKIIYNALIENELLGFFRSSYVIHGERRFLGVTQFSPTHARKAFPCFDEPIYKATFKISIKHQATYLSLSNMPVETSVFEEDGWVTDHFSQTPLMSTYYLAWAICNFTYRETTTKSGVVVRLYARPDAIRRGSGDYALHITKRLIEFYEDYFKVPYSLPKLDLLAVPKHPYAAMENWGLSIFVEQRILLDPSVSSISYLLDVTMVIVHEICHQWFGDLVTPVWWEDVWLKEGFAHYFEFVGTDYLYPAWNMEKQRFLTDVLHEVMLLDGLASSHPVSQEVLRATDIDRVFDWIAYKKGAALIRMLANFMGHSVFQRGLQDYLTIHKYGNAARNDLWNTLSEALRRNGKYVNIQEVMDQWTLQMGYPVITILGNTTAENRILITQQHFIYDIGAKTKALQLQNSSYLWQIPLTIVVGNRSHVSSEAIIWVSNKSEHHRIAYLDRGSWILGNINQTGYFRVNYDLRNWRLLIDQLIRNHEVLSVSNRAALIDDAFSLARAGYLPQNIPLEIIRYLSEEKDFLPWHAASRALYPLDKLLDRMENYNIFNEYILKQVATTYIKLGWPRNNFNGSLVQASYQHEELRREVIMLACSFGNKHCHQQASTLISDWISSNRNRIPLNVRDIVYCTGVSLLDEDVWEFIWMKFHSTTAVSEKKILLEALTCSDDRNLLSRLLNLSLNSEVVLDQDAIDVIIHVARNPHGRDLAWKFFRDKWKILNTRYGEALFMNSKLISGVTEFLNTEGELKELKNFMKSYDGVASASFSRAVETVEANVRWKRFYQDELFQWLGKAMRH
The data set is described as follows: Stability assessed as mouse recombinant TRH-degrading ectoenzyme-mediated compound degradation up to 18 hrs by HPLC method. It counts as ADME.

The test system of data set [8] is Rattus norvegicus. The data set is described as follows: Reduction in volume of infarction in Sprague-Dawley rat model of MCA occlusion-induced focal cerebral ischemia assessed as infarcts volume at 10 umol/kg, iv administered immediately after reperfusion and measured 22 hrs after reperfusion (reference value: 237.69 +/- 4.08 mm3). It is filed as functional.
For data set [9], the system named is Rattus norvegicus. The data set is described as follows: Reduction in neurological score in Sprague-Dawley rat model of MCA occlusion-induced focal cerebral ischemia at 10 umol/kg, iv administered immediately after reperfusion and measured 22 hrs after reperfusion up to 7 days. It is filed as functional, organism-based.
Data set [10] has as its system Rattus norvegicus. The data set is described as follows: Effect on mean latency time during acquisition trial in Sprague-Dawley rat model of MCA occlusion-induced memory impairment at 10 umol/kg, iv by passive avoidance test. It counts as ADME, organism-based. As to conditions: in vivo.
In data set [11] the test system is Rattus norvegicus. Nature of the data set: Effect on mean latency time during retention trial in Sprague-Dawley rat model of MCA occlusion-induced memory impairment at 10 umol/kg, iv by passive avoidance test. It counts as functional, organism-based.
The subject of data set [12] is Rattus norvegicus. Nature of the data set: Reduction in cognitive impairment in Sprague-Dawley rat assessed as increase in number of entries to platform zone during retention trial at 10 umol/kg, iv measured on day 6 by Morris water maze test (reference value: 0.5). It counts as functional.
For data set [13], the system named is Rattus norvegicus. Nature of the data set: Reduction in cognitive impairment in Sprague-Dawley rat assessed as reduction in latency to first entry to platform zone during retention trial at 10 umol/kg, iv measured on day 6 by Morris water maze test (reference value: 95.76 secs). It is filed as functional.
In data set [14] the test system is Rattus norvegicus. The data set is described as follows: Inhibition of lipid peroxidation in brain homogenates of Sprague-Dawley rat model of 2 hrs MCA occlusion-induced focal cerebral ischemia assessed as reduction in MDA levels at 10 umol/kg, iv administered immediately after reperfusion and measured 22 hrs after reperfusion by TBARS assay. It is filed as functional, organism-based.

Data set [15] concerns Rattus norvegicus. The data set is described as follows: Increase in neuronal survival in Sprague-Dawley rat model of MCA occlusion-induced focal cerebral ischemia assessed as increase in neuronal density at hippocampal CA1 regions at 10 umol/kg, iv by Cresyl violet staining based microscopy. It counts as functional, organism-based.
The subject of data set [16] is Rattus norvegicus. The data set is described as follows: Neuroprotective activity in Sprague-Dawley rat model of MCA occlusion-induced memory impairment assessed as maximum latency time during acquisition trial at 10 umol/kg, iv by passive avoidance test (reference value: 49 secs). It counts as functional.
Data set [17] concerns Rattus norvegicus. Nature of the data set: Neuroprotective activity in Sprague-Dawley rat model of MCA occlusion-induced memory impairment assessed as minimum latency time during acquisition trial at 10 umol/kg, iv by passive avoidance test (reference value: 49 secs). It is filed as functional.

With `NC(=O)[C@@H]1CCCN1C(=O)[C@H](Cc1nc(Br)[nH]c1Br)NC(=O)c1cnccn1`, the IC50 in [1] and in [2] was over 50000 nM in each case. The EC50 in data set [3] came to 2540 nM; in [4], 50 nM. Moreover, in data set [5], the Ratio EC50 worked out at 50.8. Also, the inhibition in vivo at 10 µmol/kg in [6] stood at 74.8%. Moreover, the Stability result in data set [7] was “Stable”. For the same compound, the values for the Activity in data set [8], in data set [10] and in data set [12] were 196.08 mm3, “Non-toxic” and 2.25, respectively. In addition, the result in data set [9], in data set [11], in data set [14] and in data set [15] was Active. Further, the Time in [13] was 36.31 s; in data set [16], 167 s; in data set [17], 96 s.

In general, IC50 refers to the concentration at which inhibition is half-maximal. The low end stands for greater potency, the high end for weaker potency. By EC50 is commonly meant the concentration needed to bring the measured effect to its halfway point. The term inhibition in vivo denotes the drop in the measured response relative to a control, in per cent. Low values mean a weak effect, high ones a strong effect.
